In US10138207B2, “Benzomorphan analogs and the use thereof” (priority 2012, dated 2018):

Columns and labels:
κ opioid receptor = κ opioid receptor (Homo sapiens, UniProt P41145); experiment: biochemical; format: binding; design: expressed in transfected cells; host or cells: HEK 293 (in-house membrane prep); conditions: HEK-293 or CHO cells
μ-opioid receptor [1] = biological target: T1, μ-opioid receptor (Homo sapiens, UniProt P35372); experiment: μ-opioid receptor [35S]GTPγS functional assay, HEK-293 or CHO cells; conditions: for Emax: read-out: GTPγS μ Emax
T1 sequence (P35372 whole entry, species assumed): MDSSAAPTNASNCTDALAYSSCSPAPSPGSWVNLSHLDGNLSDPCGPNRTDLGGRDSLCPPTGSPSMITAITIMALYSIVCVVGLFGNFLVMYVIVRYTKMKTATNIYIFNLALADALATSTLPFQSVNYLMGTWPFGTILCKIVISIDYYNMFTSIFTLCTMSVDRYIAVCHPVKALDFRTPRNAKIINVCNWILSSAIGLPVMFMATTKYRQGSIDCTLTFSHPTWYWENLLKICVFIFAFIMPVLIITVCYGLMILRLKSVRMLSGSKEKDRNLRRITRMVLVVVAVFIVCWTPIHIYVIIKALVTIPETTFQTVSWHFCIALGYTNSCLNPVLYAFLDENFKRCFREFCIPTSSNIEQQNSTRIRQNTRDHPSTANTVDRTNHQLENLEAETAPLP

μ-opioid receptor [2] = biological target: T1, μ-opioid receptor; experiment: μ-opioid receptor [35S]GTPγS functional assay, U-2 OS cells; format: biochemical; design: expressed in transfected cells; host or cells: U-2 OS; conditions: U-2 OS cells

Sequence of κ opioid receptor (P41145 whole entry): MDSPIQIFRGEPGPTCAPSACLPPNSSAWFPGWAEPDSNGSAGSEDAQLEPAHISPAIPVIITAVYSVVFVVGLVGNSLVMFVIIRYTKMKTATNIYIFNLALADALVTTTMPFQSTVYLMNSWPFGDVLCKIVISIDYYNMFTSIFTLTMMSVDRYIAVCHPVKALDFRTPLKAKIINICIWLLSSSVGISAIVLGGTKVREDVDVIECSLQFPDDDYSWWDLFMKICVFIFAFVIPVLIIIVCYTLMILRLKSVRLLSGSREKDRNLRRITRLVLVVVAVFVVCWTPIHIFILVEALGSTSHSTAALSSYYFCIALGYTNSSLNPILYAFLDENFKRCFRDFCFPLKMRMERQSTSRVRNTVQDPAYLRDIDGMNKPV

Structure (SMILES) | Ki (κ opioid receptor) [µM] | EC50 (μ-opioid receptor [1]) [µM] | Emax (μ-opioid receptor [1]) [%] | EC50 (μ-opioid receptor [2]; read-out: GTPγS μ EC50) [µM] | Emax (μ-opioid receptor [2]; relative to DAMGO, read-out: GTPγS μ Emax) [%] | Ki (κ opioid receptor; bound in μM) [µM]
CN1CC[C@]2(C)c3cc(O)ccc3CC1[C@@H]2CC(=O)Nc1ccc(C(=O)O)cc1 [Compound 32, 4-(2-((6S,11R)-8-hydroxy-3,6-dimethyl-1,2,3,4,5,6-hexahydro-2,6-methanobenzo[d]azocin-11-yl)acetamido)benzoic acid] | 12.7 ± 2.09 | 0.336 ± 0.0928 | 23 ± 1.53 | 0.233 ± 0.0582 | 39.8 ± 2.46 | 
COc1ccc2c(c1)[C@@]1(C)CCN(C)C(C2)[C@]1(O)c1cccc(C#N)c1 [Compound 37, 3-((6R,11S)-11-hydroxy-8-methoxy-3,6-dimethyl-1,2,3,4,5,6-hexahydro-2,6-methanobenzo[d]azocin-11-yl)benzonitrile] |  | > 20 |  |  |  | > 20
COc1ccc2c(c1)[C@@]1(C)CCN(C)C(C2)[C@@H]1c1cccc(C(=O)O)c1 [Compound 38, 3-((6S,11R)-8-methoxy-3,6-dimethyl-1,2,3,4,5,6-hexahydro-2,6-methanobenzo[d]azocin-11-yl)benzoic acid] | 17.4 ± 5.98 | > 20 |  |  |  | 
CN1CC[C@]2(C)c3cc(O)ccc3CC1[C@@H]2COc1cccc(C(=O)O)c1 [Compound 40, 3-(((6S,11R)-8-hydroxy-3,6-dimethyl-1,2,3,4,5,6-hexahydro-2,6-methanobenzo[d]azocin-11-yl)methoxy)benzoic acid] | 3.12 ± 0.483 | 3.07 ± 0.469 | 25.7 ± 3.76 |  |  | 
CN1CC[C@]2(C)c3cc(O)ccc3C[C@@H]1[C@H]2COc1cccc(C(=O)O)c1 [Compound 41, 3-(((2R,6S,11S)-8-hydroxy-3,6-dimethyl-1,2,3,4,5,6-hexahydro-2,6-methanobenzo[d]azocin-11-yl)methoxy)benzoic acid] | 1.88 ± 0.28 | 1.22 ± 0.235 | 46 ± 3.79 |  |  | 
COc1ccc2c(c1)[C@@]1(C)CCN(C)C(C2)[C@@H]1c1cccc(-c2nnn[nH]2)c1 [Compound 42, (6S,11R)-11-(3-(1H-tetrazol-5-yl)phenyl)-8-methoxy-3,6-dimethyl-1,2,3,4,5,6-hexahydro-2,6-methanobenzo[d]azocine] |  | > 20 |  |  |  | > 20
CN1CC[C@]2(C)c3cc(O)ccc3C[C@@H]1[C@H]2N(C)C(=O)c1cccc(C(=O)O)c1 [Compound 47, 3-(((2R,6R,11S)-8-hydroxy-3,6-dimethyl-1,2,3,4,5,6-hexahydro-2,6-methanobenzo[d]azocin-11-yl)(methyl)carbamoyl)benzoic acid] | 20 | 8.89 ± 0.655 | 58.7 ± 5.24 |  |  | 
CN1CC[C@]2(C)c3cc(O)ccc3C[C@@H]1[C@@H]2N(C)C(=O)c1cccc(C(=O)O)c1 [Compound 48, 3-(((2R,6R,11R)-8-hydroxy-3,6-dimethyl-1,2,3,4,5,6-hexahydro-2,6-methanobenzo[d]azocin-11-yl)(methyl)carbamoyl)benzoic acid] |  | 5.19 ± 0.549 | 26 ± 4.16 |  |  | > 20
CN1CC[C@]2(C)c3cc(O)ccc3CC1[C@@H]2C(=O)Nc1ccc(C(=O)O)cc1 [Compound 52, 4-((6S,11R)-8-hydroxy-3,6-dimethyl-1,2,3,4,5,6-hexahydro-2,6-methanobenzo[d]azocine-11-carboxamido)benzoic acid] |  | 1.03 ± 0.0731 | 72.3 ± 3.48 |  |  | > 20
CN1CC[C@]2(C)c3cc(O)ccc3CC1[C@@H]2COc1cc(C(N)=O)ccn1 [Compound 53, 2-(((6S,11R)-8-hydroxy-3,6-dimethyl-1,2,3,4,5,6-hexahydro-2,6-methanobenzo[d]azocin-11-yl)methoxy)isonicotinamide] | 0.701 ± 0.058 | 1.11 ± 0.21 | 82.7 ± 1.2 |  |  | 
CN1CC[C@]2(C)c3cc(O)ccc3CC1[C@@H]2CC(=O)N1CCC[C@H]1C(=O)O [Compound 55, (2S)-1-(2-((6S,11R)-8-hydroxy-3,6-dimethyl-1,2,3,4,5,6-hexahydro-2,6-methanobenzo[d]azocin-11-yl)acetyl)pyrrolidine-2-carboxylic acid] |  | 5.91 ± 0.422 | 71 ± 8.08 |  |  | > 20
CN1CC[C@]2(C)c3cc(O)ccc3C[C@@H]1[C@@H]2N(C)C(=O)c1ccc(C(=O)O)cc1 [Compound 59, 4-(((2R,6R,11R)-8-hydroxy-3,6-dimethyl-1,2,3,4,5,6-hexahydro-2,6-methanobenzo[d]azocin-11-yl)(methyl)carbamoyl)benzoic acid] |  | 3.44 ± 0.183 | 76.3 ± 10.2 |  |  | > 20
COc1ccc2c(c1)[C@@]1(C)CCN(C)C(C2)[C@@]1(O)c1cccc(C#N)c1 [Compound 60, 3-((6R,11R)-11-hydroxy-8-methoxy-3,6-dimethyl-1,2,3,4,5,6-hexahydro-2,6-methanobenzo[d]azocin-11-yl)benzonitrile] |  | 6.09 ± 0.529 | 38.3 ± 0.88 |  |  | > 20
COc1ccc2c(c1)[C@@]1(C)CCN(C)C(C2)[C@@H]1c1cccc(OCc2ccccc2)c1 [Compound 61, (6S,11R)-11-(3-(benzyloxy)phenyl)-8-methoxy-3,6-dimethyl-1,2,3,4,5,6-hexahydro-2,6-methanobenzo[d]azocine] | 2.77 ± 0.85 | 5.76 ± 1.55 | 26.7 ± 0.88 |  |  | 
COC(=O)c1cccc([C@]2(O)C3Cc4ccc(OC)cc4[C@@]2(C)CCN3C)c1 [Compound 62, methyl 3-((6R,11R)-11-hydroxy-8-methoxy-3,6-dimethyl-1,2,3,4,5,6-hexahydro-2,6-methanobenzo[d]azocin-11-yl)benzoate] |  | 7.45 ± 0.47 | 24 ± 2.97 |  |  | > 20
COC(=O)c1cccc([C@@]2(O)C3Cc4ccc(OC)cc4[C@@]2(C)CCN3C)c1 [Compound 64, methyl 3-((6R,11S)-11-hydroxy-8-methoxy-3,6-dimethyl-1,2,3,4,5,6-hexahydro-2,6-methanobenzo[d]azocin-11-yl)benzoate] | 12.4 | > 20 |  |  |  | 
COc1ccc2c(c1)[C@@]1(C)CCN(C)C(C2)[C@@]1(O)c1cccc(-c2nnn[nH]2)c1 [Compound 65, (6R,11R)-11-(3-(1H-tetrazol-5-yl)phenyl)-8-methoxy-3,6-dimethyl-1,2,3,4,5,6-hexahydro-2,6-methanobenzo[d]azocin-11-ol] |  | 5.06 ± 1.15 | 21.7 ± 2.85 |  |  | > 20
COc1ccc2c(c1)[C@@]1(C)CCN(C)C(C2)[C@]1(O)c1cccc(-c2nnn[nH]2)c1 [Compound 66, (6R,11S)-11-(3-(1H-tetrazol-5-yl)phenyl)-8-methoxy-3,6-dimethyl-1,2,3,4,5,6-hexahydro-2,6-methanobenzo[d]azocin-11-ol] |  | 6.61 ± 0.199 | 20.7 ± 1.33 |  |  | > 20
COc1ccc2c(c1)[C@@]1(C)CCN(C)C(C2)[C@@]1(O)c1cccc(C(N)=O)c1 [Compound 67, 3-((6R,11R)-11-hydroxy-8-methoxy-3,6-dimethyl-1,2,3,4,5,6-hexahydro-2,6-methanobenzo[d]azocin-11-yl)benzamide] |  | > 20 |  |  |  | > 20
COc1ccc2c(c1)[C@@]1(C)CCN(C)C(C2)C1N1CCCC1 (stereo partly drawn) [Compound 69, (6R)-8-methoxy-3,6-dimethyl-11-(pyrrolidin-1-yl)-1,2,3,4,5,6-hexahydro-2,6-methanobenzo[d]azocine] | 19.8 | > 20 | 24.3 ± 2.96 |  |  | 
COc1ccc2c(c1)[C@@]1(C)CCN(C)C(C2)[C@]1(O)c1cccc(C(=O)O)c1 [Compound 71, 3-((6R,11S)-11-hydroxy-8-methoxy-3,6-dimethyl-1,2,3,4,5,6-hexahydro-2,6-methanobenzo[d]azocin-11-yl)benzoic acid] |  | 13 ± 1.14 | 23 ± 4.58 |  |  | > 20
CN1CC[C@]2(C)c3cc(O)ccc3CC1[C@@H]2CC(=O)N1CCC(C(=O)O)CC1 [Compound 72, 1-(2-((6S,11R)-8-hydroxy-3,6-dimethyl-1,2,3,4,5,6-hexahydro-2,6-methanobenzo[d]azocin-11-yl)acetyl)piperidine-4-carboxylic acid] | 14.8 | 4.89 ± 0.508 | 70.3 ± 8.33 |  |  | 
COc1ccc2c(c1)[C@@]1(C)CCN(CC3CC3)[C@H](C2)[C@H]1N(C)CC(=O)O [Compound 73, 2-(((2R,6R,11S)-3-(cyclopropylmethyl)-8-methoxy-6-methyl-1,2,3,4,5,6-hexahydro-2,6-methanobenzo[d]azocin-11-yl)(methyl)amino)acetic acid] |  | 18.1 ± 2.72 | 25 ± 2.52 |  |  | > 20
